Earlier results in patent US20130143970A1, “MEDICINAL PREPARATION PARTICULARLY FOR THE TREATMENT OF SLIPPED DISCS HERNIAS” (priority 2002, published 2013).

Details: intradiscal injections

CCO [absolute alcohol, ethanol]
treatment results in lumbar discal hernias: very promising results
